Experiment: osmotic coefficient (dimensionless); mn = molality of the nth substance listed, in mol/kg
Conditions: 298.15 K, 97.5 kPa, Liquid, vapour pressure osmometry

O=Cc1ccc(CO)o1 [5-(hydroxymethyl)furan-2-carbaldehyde] + O
Conditions	osmotic coefficient
m1 = 0.496	0.85
m1 = 0.991	0.73
m1 = 1.483	0.635
m1 = 1.98	0.572
m1 = 2.473	0.521
m1 = 2.967	0.462
m1 = 3.459	0.442
m1 = 3.95	0.396
m1 = 4.444	0.378
m1 = 4.935	0.37

Source: the NIST ThermoML archive (doi:10.1016/j.jct.2019.105878)
